Columns and labels:
Assay type in all cases: biochemical
[1] = tested on: Rhizopus chinensis lipase r27RCL; experiment: Ester synthesis activity of surfactant-treated lyophilized lipase r27RCL by GC analysis; conditions: protein 0.2 mg·mL^−1
Experimental: (§1) (2) Determination of Ester Synthesis Activity of the Lipase by GC Analysis
(§2) Substrate solution A: 48.5 mL of n-octanoic acid is dissolved in 250 mL of n-heptane in a volumetric flask.
(§3) Substrate solution B: 17.5 mL of absolute ethanol is dissolved in 250 mL of n-heptane in a volumetric flask.
(§4) Internal standard: 2-hexanol/n-heptane (35 g·L^−1).
(§5) Standard sample: 10 g of n-octanoate is dissolved in 1000 mL of n-heptane in a volumetric flask.
(§6) 1 mL substrate solution A and substrate solution B are added in a 5 mL Eppendorf tube respectively, then 20 mg lipase powder (or lyophilized powder) is added. The reaction is carried out at 40° C. and with shaking at 150 rpm for 30 min. Remove the lipase powder by centrifugation or membrane filtration. Then 0.1 mL of internal standard is added in 0.4 mL of filtrate or supernatant and mixed. Measure the content of n-octanoate in the mixture above by GC analysis.
(§7) The gas chromatograph (6820, Agilent Instruments) is equipped with a AC20 (PEG20000) capillary column and a FID detector. Nitrogen was used as the carrier gas. The oven temperature was programmed to start at 90° C. for 1 min and then be elevated to 200° C. for 5 min at 10° C.·min^−1. The injector and detector temperatures were set at 250° C.
(§8) Definition of enzyme activity: One unit of ester synthesis activity is defined as the amount of enzyme that esterifies 1 micromole of n-octanoate per min.
(§9) Specific activity: the activity of lipase per milligram of total protein in the lipase preparation.
(§10) Total recovery: the percentage of the activity after a treatment to that before the treatment
(§11) Add an equal volume of high-concentration surfactant solution into the enzyme solution. The final protein concentration was […] and the surfactant concentration was 10 mM. After mixed thoroughly, the mixture was lyophilized and kept in dry condition.
(§12) Commercial lipase r27RCL was purchased from Jiangsu Yiming Biological Technology Co., Ltd, which has high hydrolytic activity and low ester synthesis activity. Dissolve the r27RCL powder in water and centrifuge to obtain the supernatant containing the r27RCL lipase to adjust the ester synthesis activity (the final protein concentration was 0.2 mg·mL^−1 and the final concentration of surfactant was 10 mM, which is between 0.1×CMC^˜200×CMC of the different surfactants in Table 1).
(§13) Commercial lipase r27RCL was purchased from Jiangsu Yiming Biological Technology Co., Ltd. r27RCL is a lipase with high hydrolytic activity but low ester synthesis activity. Dissolve the r27RCL powder in water, centrifuge to obtain the supernatant and treat the supernatant with different concentrations of surfactant LPC14 (the final protein concentration was 0.2 mg·mL^−1).

[2] = tested on: Rhizopus chinensis lipase r27RCL; experiment: Hydrolytic activity of surfactant-treated lipase r27RCL using pNPP as substrate; conditions: protein 0.2 mg·mL^−1
From the text: (§14) (1) Determination of Hydrolytic Activity of the Lipase Using p-Nitrophenyl Palmitate (pNPP) as Substrate
(§15) Hydrolysis of pNPP catalyzed by lipase generates p-nitrophenol and palmitic acid. p-nitrophenol appears yellow in the buffer at pH 8.0 with the maximum absorption peak at 410 nm. Determination of hydrolytic activity can be achieved by measuring the absorbance at 410 nm.
(§16) The substrate solution A: 50 mmol·L^−1 sodium phosphate buffer (pH 8.0) containing 1.16 g·L^−1 sodium deoxycholate and 0.56 g·L^−1 arabic gum. Substrate solution B: 0.015 g pNPP is dissolved in 5 mL isopropyl alcohol. Substrate solution A and substrate solution B are mixed then stored for use afterwards.
(§17) Termination solution: 40 g·L^−1 NaOH, 93.05 g·L^−1 EDTA sodium. Add 62 uL termination solution to the reaction mixture when stopping the reaction.
(§18) Add 0.1 mL appropriately diluted enzyme solution, which is substituted by inactivated enzyme solution as the control, to 2.4 mL substrate solution above, incubate the mixture at 40° C. for 2 min and measure the absorbance at 410 nm.
(§19) one hydrolytic activity unit is defined as the amount of enzyme that catalyzes the formation of 1 μmol of p-nitrophenol in 1 minute at 40° C.
(§20) enzyme activity (U·mL^−1)=(V×A410×10^6)/(ε×t×V′) Calculation equation: […]
(§21) Specific activity: the activity of lipase per milligram of total protein in the lipase preparation. […]
as §12, §13

[3] = molecular target: T1, Rhizoupus oryzae lipase ROL (Rhizopus oryzae, UniProt P61872); experiment: Ester synthesis activity of surfactant-treated lyophilized lipase ROL by GC analysis; conditions: protein 0.2 mg·mL^−1
T1 construct: purchased Sigma-Aldrich Co., Ltd
T1 sequence (P61872 96-392): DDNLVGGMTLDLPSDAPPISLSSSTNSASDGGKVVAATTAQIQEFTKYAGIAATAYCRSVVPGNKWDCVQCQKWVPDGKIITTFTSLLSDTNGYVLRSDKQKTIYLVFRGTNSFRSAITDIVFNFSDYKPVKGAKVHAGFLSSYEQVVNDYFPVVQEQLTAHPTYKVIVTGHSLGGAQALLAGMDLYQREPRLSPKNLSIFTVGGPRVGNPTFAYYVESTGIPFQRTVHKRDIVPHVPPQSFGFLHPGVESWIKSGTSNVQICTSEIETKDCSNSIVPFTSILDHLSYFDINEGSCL
Experimental: as §1, §2, §3, §4, §5, §6, §7, §8, §9, §10, §11
(§22) Commercial lipase ROL was purchased from Sigma-Aldrich Co., Ltd. ROL is a non-immobilized lipase. Dissolve the ROL powder in water and centrifuge to obtain the supernatant containing the ROL lipase that would be regulated to improve its ester synthesis activity by adjusting the final protein concentration to 0.2 mg·mL^−1 and adding surfactants to the final concentration of 10 mM.
(§23) Commercial lipase ROL was purchased from Sigma-Aldrich Co., Ltd. and is a non-immobilized lipase. Dissolve the ROL powder in water, centrifuge to obtain the supernatant and treat the supernatant with different concentrations of surfactant LPC14 (the final protein concentration was 0.2 mg·mL^−1).

[4] = molecular target: T1, Rhizoupus oryzae lipase ROL; experiment: Hydrolytic activity of surfactant-treated lipase ROL using pNPP as substrate; conditions: protein 0.2 mg·mL^−1
From the text: as §14, §15, §16, §17, §18, §19, §20, §21, §22, §23

[5] = molecular target: T2, Pseudomonas cepacia lipase PCL (Burkholderia cepacia, UniProt P22088); experiment: Ester synthesis activity of surfactant-treated lyophilized lipase PCL by GC analysis; conditions: surfactant 10 mM, protein 0.2 mg·mL^−1
T2 construct: purchased Sigma-Aldrich Co., Ltd
T2 sequence (P22088 45-364): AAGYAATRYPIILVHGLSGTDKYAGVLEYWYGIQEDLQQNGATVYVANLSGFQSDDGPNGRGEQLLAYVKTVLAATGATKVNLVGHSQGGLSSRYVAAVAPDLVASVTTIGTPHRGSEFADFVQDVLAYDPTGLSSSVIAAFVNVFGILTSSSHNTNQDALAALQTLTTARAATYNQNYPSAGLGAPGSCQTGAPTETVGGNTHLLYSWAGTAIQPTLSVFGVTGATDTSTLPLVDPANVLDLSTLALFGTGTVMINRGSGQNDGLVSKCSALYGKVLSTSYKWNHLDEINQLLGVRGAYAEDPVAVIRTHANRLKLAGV
Experimental: as §1, §2, §3, §4, §5, §6, §7, §8, §9, §10, §11
as §22, with “PCL” for “ROL”, “the” for “its”
(§24) Commercial lipase PCL was purchased from Sigma-Aldrich Co., Ltd. and is a non-immobilized lipase. Dissolve the PCL powder in water, centrifuge to obtain the supernatant and treat the supernatant with different concentrations of surfactant DDM (the final protein concentration was 0.2 mg·mL^−1).

[6] = molecular target: T2, Pseudomonas cepacia lipase PCL; experiment: Hydrolytic activity of surfactant-treated lipase PCL using pNPP as substrate; conditions: surfactant 10 mM, protein 0.2 mg·mL^−1
From the text: as §14, §15, §16, §17, §18, §19, §20, §21
as §22, with “PCL” for “ROL”, “the” for “its”
as §24

[7] = molecular target: T3, Candida antarctica lipase CALB (Moesziomyces antarcticus, UniProt P41365); experiment: Ester synthesis activity of surfactant-treated lyophilized lipase CALB by GC analysis; conditions: surfactant 10 mM, protein 0.12 mg·mL^−1
T3 construct: purchased Sigma-Aldrich Co., Ltd
T3 sequence (P41365 26-342): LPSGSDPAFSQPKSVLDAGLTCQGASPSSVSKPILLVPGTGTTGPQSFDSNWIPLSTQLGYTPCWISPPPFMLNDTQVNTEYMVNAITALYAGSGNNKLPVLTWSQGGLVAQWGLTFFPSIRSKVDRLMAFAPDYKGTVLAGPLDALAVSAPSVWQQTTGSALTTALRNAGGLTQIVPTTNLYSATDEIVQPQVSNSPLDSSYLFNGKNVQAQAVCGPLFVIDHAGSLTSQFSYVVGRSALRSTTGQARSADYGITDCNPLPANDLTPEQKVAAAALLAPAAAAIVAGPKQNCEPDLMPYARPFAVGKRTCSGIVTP
Experimental: as §1, §2, §3, §4, §5, §6, §7, §8, §9, §10, §11
as §22, with “CALB” for “ROL”, “the” for “its”, “0.12” for “0.2”
(§25) Commercial lipase CALB was purchased from Sigma-Aldrich Co., Ltd. and is a non-immobilized lipase. Dissolve the CALB powder in water, centrifuge to obtain the supernatant and treat the supernatant with different concentrations of surfactant DDM (the final protein concentration was 0.12 mg·mL^−1).

[8] = molecular target: T3, Candida antarctica lipase CALB; experiment: Hydrolytic activity of surfactant-treated lipase CALB using pNPP as substrate; conditions: surfactant 10 mM, protein 0.12 mg·mL^−1
From the text: as §14, §15, §16, §17, §18, §19, §20, §21
as §22, with “CALB” for “ROL”, “the” for “its”, “0.12” for “0.2”
as §25

[9] = surfactant concentration 0.1 x CMC
[10] = surfactant concentration 1 x CMC
[11] = surfactant concentration 100 x CMC
[12] = surfactant concentration 10 x CMC

CCCCCC(=O)OC[C@H](COP(=O)([O-])OCC[N+](C)(C)C)OC(=O)CCCCC [DiC6PC, 1,2-dihexanoyl lecithin]
Ester synthesis activity, Specific activity ([1]; surfactant 10 mM): 15.9 U · mg^−1
Ester synthesis activity, Total recovery ([1]; surfactant 10 mM): 256%
Hydrolytic activity, Specific activity ([2]; surfactant 10 mM): 104.2 U · mg^−1
Hydrolytic activity, Total recovery ([2]; surfactant 10 mM): 87%
Ester synthesis activity, Specific activity ([3]; surfactant 10 mM): 3.11 U · mg^−1
Hydrolytic activity, Specific activity ([4]; surfactant 10 mM): 15.2 U · mg^−1
Hydrolytic activity, Total recovery ([4]; surfactant 10 mM): 76%
Ester synthesis activity, Specific activity [5]: 7.1 U · mg^−1
Ester synthesis activity, Total recovery [5]: 260%
Hydrolytic activity, Specific activity [6]: 308.2 U · mg^−1
Hydrolytic activity, Total recovery [6]: 140%
Ester synthesis activity, Specific activity [7]: 31.9 U · mg^−1
Hydrolytic activity, Specific activity [8]: 0.98 U · mg^−1
Hydrolytic activity, Total recovery [8]: 85%

CCCCCCCCCCCCCC(=O)OCC(O)COP(=O)([O-])OCC[N+](C)(C)C (stereo not drawn) [LPC14, 1-myristyl 2-acyl-cis-propyltri-phosphatidylcholine]
Ester synthesis activity, Specific activity ([1]; surfactant 10 mM): 47.6 U · mg^−1
Ester synthesis activity, Specific activity [1, 9]: 1.8 U · mg^−1
Ester synthesis activity, Total recovery [1, 9]: 32%
Ester synthesis activity, Specific activity [1, 10]: 1.4 U · mg^−1
Ester synthesis activity, Total recovery [1, 10]: 25%
Ester synthesis activity, Specific activity [1, 11]: 17.1 U · mg^−1
Ester synthesis activity, Total recovery [1, 11]: 292%
Hydrolytic activity, Total recovery ([2]; surfactant 10 mM): 97%
Hydrolytic activity, Specific activity [2, 9]: 120.2 U · mg^−1
Hydrolytic activity, Total recovery [2, 9]: 101%
Hydrolytic activity, Specific activity [2, 10]: 122.2 U · mg^−1
Hydrolytic activity, Total recovery [2, 10]: 102%
Hydrolytic activity, Specific activity [2, 12]: 128.0 U · mg^−1
Hydrolytic activity, Total recovery [2, 12]: 107%
Hydrolytic activity, Specific activity [2, 11]: 125.7 U · mg^−1
Hydrolytic activity, Total recovery [2, 11]: 102%
Ester synthesis activity, Specific activity ([3]; surfactant 10 mM): 12.2 U · mg^−1
Ester synthesis activity, Specific activity [3, 9]: 0.4 U · mg^−1
Ester synthesis activity, Total recovery [3, 9]: 97%
Ester synthesis activity, Specific activity [3, 10]: 0.2 U · mg^−1
Ester synthesis activity, Total recovery [3, 10]: 46%
Ester synthesis activity, Specific activity [3, 12]: 1.0 U · mg^−1
Ester synthesis activity, Total recovery [3, 12]: 240%
Ester synthesis activity, Specific activity [3, 11]: 6.2 U · mg^−1
Hydrolytic activity, Specific activity ([4]; surfactant 10 mM): 33.1 U · mg^−1
Hydrolytic activity, Total recovery ([4]; surfactant 10 mM): 106%
Hydrolytic activity, Specific activity [4, 9]: 28.7 U · mg^−1
Hydrolytic activity, Total recovery [4, 9]: 150%
Hydrolytic activity, Specific activity [4, 10]: 27.7 U · mg^−1
Hydrolytic activity, Total recovery [4, 10]: 139%
Hydrolytic activity, Specific activity [4, 12]: 31.2 U · mg^−1
Hydrolytic activity, Total recovery [4, 12]: 162%
Hydrolytic activity, Specific activity [4, 11]: 39.0 U · mg^−1
Hydrolytic activity, Total recovery [4, 11]: 206%
Ester synthesis activity, Specific activity [5]: 44.6 U · mg^−1
Hydrolytic activity, Specific activity [6]: 321.8 U · mg^−1
Hydrolytic activity, Total recovery [6]: 119%
Ester synthesis activity, Specific activity [7]: 36.8 U · mg^−1
Hydrolytic activity, Specific activity [8]: 0.54 U · mg^−1
Hydrolytic activity, Total recovery [8]: 38%

polyethylene glycol octylphenyl Ether [Triton X-100]
Ester synthesis activity, Specific activity ([1]; surfactant 10 mM): 12.9 U · mg^−1
Ester synthesis activity, Total recovery ([1]; surfactant 10 mM): 192%
Hydrolytic activity, Specific activity ([2]; surfactant 10 mM): 116.6 U · mg^−1
Hydrolytic activity, Total recovery ([2]; surfactant 10 mM): 93%
Ester synthesis activity, Specific activity ([3]; surfactant 10 mM): 1.7 U · mg^−1
Ester synthesis activity, Total recovery ([3]; surfactant 10 mM): 200%
Hydrolytic activity, Specific activity ([4]; surfactant 10 mM): 34.9 U · mg^−1
Hydrolytic activity, Total recovery ([4]; surfactant 10 mM): 99%
Ester synthesis activity, Specific activity [5]: 6.3 U · mg^−1
Ester synthesis activity, Total recovery [5]: 174%
Hydrolytic activity, Specific activity [6]: 364.5 U · mg^−1
Hydrolytic activity, Total recovery [6]: 131%
Ester synthesis activity, Specific activity [7]: 77.4 U · mg^−1
Hydrolytic activity, Specific activity [8]: 0 U · mg^−1
Hydrolytic activity, Total recovery [8]: 0%

From patent US20190185829A1, “Preparation of lipase with improved ester synthesis activity by using surfactants” (Jiangnan University, priority 2017, published 2019)
